Data: US7063946B2, “Methods, reagents, kits and apparatus for protein function analysis” (Meso Scale Technologies, LLC., priority 2001, dated 2006)

Tests used:
[1] = tested on: pooled phosphopeptide:BSA conjugates (Pools A-D); experiment: Coded multiplex phosphopeptide binding assay with pooled peptide:BSA conjugates on 4 spots; details: for ECL signal, spot A: Pool A, EGFR-pTyr1148, IkBa-24ppC, Myc-p58Tp62S; for ECL signal, spot B: Pool B, EGFR-pTyr992, EGFR-pTyr1148, Smad3C; for ECL signal, spot C: Pool C, EGFR-pTyr1068, IkBa-24ppC, Smad3C; for ECL signal, spot D: Pool D, EGFR-pTyr992, EGFR-pTyr1068, Myc-p58Tp62S
Description: To prepare the Multi-Spot IPR plates, in this example we made use of pools of the peptide:BSA conjugates to coat each of 4 spots per well in a 96 well plate. To achieve this we made the following pools; • Pool A; EGFR-pTyr1148, IkBa-24ppC, Myc-p58Tp62S. • Pool B; EGFR-pTyr992, EGFR-pTyr1148, Smad3C. • Pool C; EGFR-pTyr1068, IkBa-24ppC, Smad3C. • Pool D; EGFR-pTyr992, EGFR-pTyr1068, Myc-p58Tp62S.
This combination of the various peptides results in any single peptide being present in two pools. Each of these four pools is then spotted on to a unique spot in a 4 spot array. In this way any single binding protein with specificity for only one of the peptides would bind to two spots; the identity of the two spots would allow the identification of the peptide involved in the binding reaction.
Typically approximately 120 fmole of peptide:BSA conjugate in 0.25 μl was deposited on each spot of a 4-spot multi-array IPR plates using a BioDot Dispenser (Bio-Dot Inc., vIrvine Calif.). At this stage, the plates were dried then used or stored under desiccated condition. A few hours prior to usage, the plates were rehydrated and blocked with 3% BSA, in PBS.
To test the system the following EST clones IMAGE # 3491843, 4237375, 4398016, 4419252, 3872466, 3907115 were obtained. These clones express the following genes βTRCP1, βTRCP2, Grb2, PLCγ, CBP and Shc1, respectively. […] These DNAs were used to produce proteins as described in the Materials and Methods. Proteins were transferred to a well of the 4 spot peptide-coated and BSA blocked ECL plates. The binding assay (using Sulfo-TAG labeled streptavidin as a detection agent) was carried our according to the procedures described in Example 11.

[2] = biological target: T1, c-Myc peptide [SEQ ID No. 4] (Homo sapiens, UniProt P01106); experiment: Phosphopeptide binding assay, peptide-BSA coated IPR plate
T1 construct: phosphothreonine (T58) and phosphoserine (S62) (chemical modification); purchased New England Peptide, Fitchburg Mass; host or cells: chemical synthesis
Experimental: (§1) A phosphopeptide derived from the IkBa degradation motif (SEQ ID NO: 1) and a phosphopeptide derived from c-Myc (SEQ ID NO: 4) were chemically synthesized (New England Peptide, Fitchburg Mass.) with the following sequences respectively:
To prepare IPR plates for use in the assay, approximately 2.4 pmol BSA, 1.2 pmole IκBα-24pp peptide-BSA conjugate or 1.2 pmole of Myc-p58Tp62S peptide-BSA conjugate in 2.5 μl were deposited on the carbon working electrode surface in a single well of a 96-well plate. At this stage, the plates were dried then used or stored under desiccated condition. A few hours prior to usage, the plates were rehydrated and blocked with 3% BSA, in PBS.
Two βTRCP genes, βTRCP1 and βTRCP2, are present in the human genome on […], respectively. The coding sequence of these two genes shares over 90% identity and several full-length cDNAs of which are available as EST clones from Incyte (Palo Alto, Calif.) IMAGE #3491843 and 4237375. Also included were three other non specific EST clones as controls (Incyte, Palo alto, Calif.). […] These DNAs were used to produce the βTRCP protein and proteins encoded by the other DNAs as described in the Example 7. Proteins were transferred into wells of the peptide-coated and BSA-blocked IPR plates. […] The ECL signals were measured using an imaging plate reader (IPR).

[3] = biological target: T2, IkBa peptide [SEQ ID No. 1] (Homo sapiens, UniProt P25963); experiment: as above
T2 construct: two phosphoserines in the DSGLDS motif (chemical modification); purchased New England Peptide, Fitchburg Mass; host or cells: chemical synthesis
Description: as §1
A maleimide pre-activated BSA (Pierce, Pittsburgh Pa.), which contains estimated 17 active maleimide groups on the protein surface, was used as the protein carrier, and was supplied as a lyophilized preparation. Coupling of the IkBa peptide (SEQ ID NO: 1) to the pre-activated BSA was carried out with 2 mg BSA (30 nmol) and 17 equivalents of the 25 residue phosphopeptide in 400 μl PBS. The reaction was terminated with 2 mM […] after incubation at room temperature for 30 minutes. The peptide:BSA conjugate was then purified on PD-10 gel filtration column to remove uncoupled peptide and analyzed with SDS PAGE to monitor the coupling reaction. […] After coupling and purification, the column fractions containing the peptide:BSA conjugates were pooled and the protein concentration of the pooled samples was determined by BCA assay (Pierce, Pittsburgh Pa.). NaN3, (0.02%) was added to the final peptide:BSA conjugate sample for long term storage at 4° C. […]
Two βTRCP genes, βTRCP1 and βTRCP2, are present in the human genome on chromosome 5 and 10, respectively. […] The ECL signals were measured using an imaging plate reader (IPR).

[4] = biological target: T3, EGFR-pY1068 (SEQ ID NO: 7) (Homo sapiens, UniProt P00533); experiment: Single-well 4-spot assay for multiple peptide-protein interactions; format: binding; details: 4-spot plate
T3 construct: phosphotyrosine at Tyr1068 (chemical modification); purchased New England Peptide, Fitchburg Mass; host or cells: chemical synthesis
Description: (§2) Four phosphopeptides and their cognate binding proteins (Table 14) were selected for an integrated assay of multiple peptide-protein interaction in 4-spot Multi-Array plates. The IkBa-24pp peptide and its binding protein, βTRCP, are described in Example 10. […] These phosphotyrosine containing peptides are recognized by different adaptor or effecter proteins of the receptor tyrosine kinase signaling pathway.
(§3) These four peptides were coupled to BSA carrier protein through cystine residue. After purification on PD-10 gel filtration columns, the peptide-BSA conjugates were then deposited on the assay domains of a 4-spot multi-array IPR plate (i.e., in one of the four exposed regions of working electrode defined by the dielectric layer) with an automated micro-dispensing system (Bio-Dot Dispenser, Bio-Dot, Irvine Calif.). […] These plates are dried then used or stored under desiccated conditions. A few hours prior to usage the plates were rehydrated and blocked with 3% BSA in PBS. […] The in vitro translated and biotin-labeled proteins were then assayed in the 4-spot multi-array IPR plates under conditions described in Example 10.

[5] = biological target: T4, EGFR-pY1148 (SEQ ID NO: 9) (Homo sapiens, UniProt P00533); experiment: as above; format: binding; details: 4-spot plate
T4 construct: phosphotyrosine at Tyr1148 (chemical modification); purchased New England Peptide, Fitchburg Mass; host or cells: chemical synthesis
Description: as §2, §3

T2 sequence (P25963 with tags, fused parts or gaps limits assumed): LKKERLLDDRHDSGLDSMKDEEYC
T1 sequence (P01106 with tags, fused parts or gaps limits assumed): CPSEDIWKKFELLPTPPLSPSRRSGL

| Substance | Code (pattern of positive spots) [1] | Peptide determined from code [1] | ECL signal, spot A [1] | ECL signal, spot B [1] | ECL signal, spot C [1] | ECL signal, spot D [1] | Average ECL signal, c-Myc peptide [SEQ ID No. 4] [2] | Average ECL signal, IkBa peptide [SEQ ID No. 1] [3] | ECL signal, spot 3 EGFR-pY1068 [4] | ECL signal, spot 2 EGFR-pY1148 [5] |
| --- | --- | --- | --- | --- | --- | --- | --- | --- | --- | --- |
| 3872466: IMAGE clone protein: mCBP [compound 3872466] | Neg. | Negative | 19 | 30 | 22 | 15 | 351 | 371 | 126 | 278 |
| 3491843: IMAGE clone protein: βTRCP1 [compound 3491843] | A, C | IkBa-24ppC | 9536 | 208 | 11184 | 171 | 2118 | 40879 | 24 | 36 |
